Data: patent US7196190B2, “Methods and compositions for screening for angiogenesis modulating compounds” (Xenogen Corporation, priority 1999, dated 2007)

Tested on: VEGFR-2 promoter
Assay: In vivo bioluminescence imaging of female VEGFR2 transgenic mouse during estrus
Details: subcutaneous 30mg/kg/day for 16 days, female VEGFR2 transgenic F1 mouse (founder KA); before treatment signal high for a maximum of 3–5 days
Text: Two female VEGFR2 transgenic F1 mice from founder KA (See Example 7 above) were subjected to in vivo imaging of bioluminescence both dorsally and ventrally over a 16 day period according to the methods described in U.S. Pat. No. 5,650,135 to Contag et al. The results are presented graphically in FIGS. 18A–18D (FIGS. 18A and 18B, mouse 1 and 2 dorsal views, respectively, and FIGS. 18C and 18D, mouse 1 and 2 ventral views, respectively). […] In general, higher levels of luminescence were detectable ventrally as compared to dorsally. The signals appeared to be localized in the ovary (dorsal view) and uterus (ventral view). Both ovaries were clearly visible in most of the dorsal views. The uterus, connecting tubes and ovaries were visible in some of the ventral views.
The effect of the known estrogen antagonist ICI 182 780 (Tocris Cookson Ltd. Bristol, UK) on gene expression mediated by the VEGFR-2 promoter was investigated using the methods described in the preceding example.
A mature female VEGFR2 transgenic F1 mouse from founder KA (See Example 7 above) was imaged daily for 16 days according to the methods described in U.S. Pat. No. 5,650,135 to Contag et al. The bioluminescence signal remained high for a maximum of from 3–5 days, dropping back to a basal level for the interim periods. […]

With `C[C@]12CC[C@@H]3c4ccc(O)cc4C[C@@H](CCCCCCCCC[S+]([O-])CCCC(F)(F)C(F)(F)F)[C@H]3[C@@H]1CC[C@@H]2O` (stereo partly shown) [ICI 182 780] the “time the uterine bioluminescence signal remained high before dropping back to basal level” value was 9 days.
